Source: patent publication US20210206744A1, “BENZIMIDAZOLE COMPOUNDS AS AGRICULTURAL CHEMICALS” (REDAG CROP PROTECTION LTD, priority 2017, published 2021)

Tests used:
Phytophthora cactorum = assay: 96 well plate test; assay type: cell-based; parameters: key to EC50 Phytophthora cactorum: G: no control detected at 2 ppm; F: an EC50 of ≥2 ppm; an EC50 of less than 2 ppm; conditions: agar amended to 2, 0.2, 0.02 and 0.002 ppm, 18° C., assessed after 2 to 3 days; for EC50: Phytophthora cactorum
Protocol: Compounds were screened in 96 well plates with 10 compounds per plate. Each compound was screened using agar amended to 2, 0.2, 0.02 and 0.002 ppm, with proline at 50 and 10 ppm and 0.2% DMSO used as controls. Each test concentration and standard was replicated twice on a plate. Compounds were screened against Phytophthora cactorum. The agar used in the test is a 1% potato dextrose agar. 1000 spores/mL agar were added to the appropriate agar.
A ×10 stock solution in 2% DMSO was produced for each dose i.e. 20, 2, 0.2 and 0.02 ppm, and 10 μl of this added to the appropriate wells on the plate. An equivalent amount of 2% DMSO and proline stock at 500 and 100 ppm were added for the controls. To each well 90 μl of the appropriate agar spore suspension was added to give the required final well concentrations. Plates were incubated at room temperature (18° C.) and assessed after 2 to 3 days. The amount of pathogen growth in each well was compared to the DMSO controls and an EC50 concentration was calculated. The results are provided in Table 1 in which G represents no control detected at 2 ppm, F represents an EC50 of ≥2 ppm, and E represents an EC50 of less than 2 ppm.

Pythium ultimum = assay: Amended agar assay; assay type: cell-based; parameters: key to % control Pythium ultimum (% reduction in colony growth compared to the control plate): D: no control detected at this concentration; C: up to 50% control; B: from 50 to 99% control; A: a control of greater than 99%, i.e. no detectable colony growth; conditions: potato dextrose agar amended with compound at 2 ppm, 18° C., 2 to 7 days; for inhibition of growth at 2 ppm: Globisporangium ultimum, read-out: % control Pythium ultimum (% reduction in colony growth compared to the control plate)
Protocol: Amended Agar Assay Testing was carried out on potato dextrose agar (PDA) amended with each compound at a test concentration of 2 ppm. Amended agar was poured into three replicate 9 cm petri dishes. Each replicate dish was inoculated in the centre with a 5 mm agar plug taken from the leading edge of a culture aged between 2 and 7 days old; the age of the culture was dependent on the growth rate of the pathogen being tested. The test pathogen was Pythium ultimum. Plates were incubated at 18° C. and the diameter of each colony measured before growth on the fastest growing plate reached the plate edge. This varied between 2 and 7 days depending on the growth rate of test pathogens. The % reduction in colony growth compared to the control plate was calculated. The results are provided in Table 1, in which D represents no control detected at this concentration; C represents up to 50% control; B from 50 to 99% control; and A represents a control of greater than 99%, i.e. no detectable colony growth.

Compound	EC50 (Phytophthora cactorum) [µg/mL]	inhibition of growth at 2 ppm (Pythium ultimum) [%]	EC50 Phytophthora cactorum (Phytophthora cactorum)	% control Pythium ultimum (% reduction in colony growth compared to the control plate) (Pythium ultimum)
COc1cc(F)cc2c1nc(OCc1cccc(NC(=O)COc3ccccc3)n1)n2-c1nnnn1C [Compound 5]	< 2	> 99	–	–
CCC(CC)C(=O)Nc1cccc(COc2nc3c(Cl)cccc3n2-c2nnnn2C)n1 [Compound 27]	< 2	> 99	–	–
Cn1nnnc1-n1c(OCc2cccc(NC(=O)C3CCCC3)n2)nc2c(Br)cccc21 [Compound 37]	< 2	> 99	–	–
C=CCOc1cccc2c1nc(OCc1cccc(NC(=O)OC(C)(C)C)n1)n2-c1nnnn1C [Compound 7, tert-butyl (6-(((4-(allyloxy)-1-(1-methyl-1H-tetrazol-5-yl)-1H-benzo[d]imidazol-2-yl)oxy)methyl)pyridin-2-yl)carbamate]	< 2	> 99	–	–
COc1cccc2c1nc(OCc1cccc(NC(=O)OC(C)(C)C)n1)n2-c1nnnn1C [Compound 8]	< 2	> 99	–	–
CCCCC(=O)Nc1cccc(COc2nc3c(Br)cccc3n2-c2nnnn2C)n1 [Compound 42]	< 2	> 99	–	–
Cn1nnnc1-n1c(OCc2cccc(NC(=O)C(C)(C)C)n2)nc2c(Cl)cccc21 [Compound 19]	< 2	> 99	–	–
CCCOC(=O)Nc1cccc(COc2nc3c(Cl)cccc3n2-c2nnnn2C)n1 [Compound 16]	< 2	> 99	–	–
CCOC(=O)Nc1cccc(COc2nc3c(Cl)cccc3n2-c2nnnn2C)n1 [Compound 14]	≥ 2	> 99	–	–
COc1cc(F)cc2c1nc(OCc1cccc(NC(=O)OC(C)(C)C)n1)n2-c1nnnn1C [Compound 4]	< 2	> 99	–	–
CCCCC(=O)Nc1nc(COc2nc3c(Cl)cccc3n2-c2nnnn2C)cs1 [Compound 43]	–	–	G	D
CC(C)COC(=O)Nc1cccc(COc2nc3c(Br)cccc3n2-c2nnnn2C)n1 [Compound 38]	< 2	> 99	–	–
CC(C)CCC(=O)Nc1nc(COc2nc3c(Cl)cccc3n2-c2nnnn2C)cs1 [Compound 44]	≥ 2	< 50	–	–
CCCCOC(=O)Nc1cccc(COc2nc3c(Cl)cccc3n2-c2nnnn2C)n1 [Compound 13]	< 2	> 99	–	–
CC(C)OC(=O)Nc1cccc(COc2nc3c(Cl)cccc3n2-c2nnnn2C)n1 [Compound 18]	≥ 2	> 99	–	–
CC(C)COC(=O)Nc1cccc(COc2nc3c(Cl)cccc3n2-c2nnnn2C)n1 [Compound 15]	< 2	> 99	–	–
CC(C)COC(=O)Nc1cccc(COc2nc3c(-c4ccccc4)cccc3n2-c2nnnn2C)n1 [Compound 46]	< 2	> 99	–	–
Cn1nnnc1-n1c(OCc2cccc(NC(=O)OC3CCCC3)n2)nc2c(Cl)cccc21 [Compound 17]	< 2	> 99	–	–
CCCOC(=O)Nc1cccc(COc2nc3c(Br)cccc3n2-c2nnnn2C)n1 [Compound 39]	< 2	> 99	–	–
Cn1nnnc1-n1c(OCc2cccc(NC(=O)CC(F)(F)F)n2)nc2c(Cl)cccc21 [Compound 30]	< 2	> 99	–	–

Compound	EC50 (Phytophthora cactorum) [µg/mL]	inhibition of growth at 2 ppm (Pythium ultimum) [%]	EC50 Phytophthora cactorum (Phytophthora cactorum)	% control Pythium ultimum (% reduction in colony growth compared to the control plate) (Pythium ultimum)
Cn1nnnc1-n1c(OCc2cccc(NC(=O)C(F)(F)F)n2)nc2c(Cl)cccc21 [Compound 29]	< 2	> 99	–	–
Cn1nnnc1-n1c(OCc2cccc(NC(=O)OC(C)(C)C)n2)nc2c(O)cccc21 [Compound 22, tert-Butyl (6-(((4-hydroxy-1-(1-methyl-1H-tetrazol-5-yl)-1H-benzo[d]imidazol-2-yl)oxy)methyl)pyridin-2-yl)carbamate]	≥ 2	50 to 99	–	–
CC(C)CCC(=O)Nc1cccc(COc2nc3c(Cl)cccc3n2-c2nnnn2C)n1 [Compound 9]	< 2	> 99	–	–
CCC(=O)Nc1cccc(COc2nc3c(Cl)cccc3n2-c2nnnn2C)n1 [Compound 23, N-(6-(((4-Chloro-1-(1-methyl-1H-tetrazol-5-yl)-1H-benzo[d]imidazol-2-yl)oxy)methyl)pyridin-2-yl)propionamide]	≥ 2	> 99	–	–
C=CCOC(=O)Nc1cccc(COc2nc3c(Cl)cccc3n2-c2nnnn2C)n1 [Compound 11]	< 2	> 99	–	–
CC(C)C(=O)Nc1cccc(COc2nc3c(Cl)cccc3n2-c2nnnn2C)n1 [Compound 24]	< 2	> 99	–	–
Cn1nnnc1-n1c(OCc2cccc(NC(=O)OC(C)(C)C)n2)nc2c(-c3ccccc3)cccc21 [Compound 45, tert-Buty (6-(((1-(1-methyl-1H-tetrazol-5-yl)-4-phenyl-1H-benzo[d]imidazol-2-yl)oxy)methyl)pyridin-2-yl)carbamate]	< 2	> 99	–	–
CC(C)COC(=O)Nc1cccc(COc2nc3c(C4CC4)cccc3n2-c2nnnn2C)n1 [Compound 47]	< 2	> 99	–	–
Cn1nnnc1-n1c(OCc2cccc(NC(=O)C3CCC3)n2)nc2c(Cl)cccc21 [Compound 32]	< 2	> 99	–	–
Cn1nnnc1-n1c(OCc2cccc(NC(=O)OC(C)(C)C)n2)nc2c(Br)cccc21 [Compound 34, tert-Butyl (6-(((4-bromo-1-(1-methyl-1H-tetrazol-5-yl)-1H-benzo[d]imidazol-2-yl)oxy)methyl)pyridin-2-yl)carbamate]	< 2	> 99	–	–
CC(C)CC(=O)Nc1cccc(COc2nc3c(Cl)cccc3n2-c2nnnn2C)n1 [Compound 26]	< 2	> 99	–	–
Cn1nnnc1-n1c(OCc2cccc(NC(=O)C3CC3)n2)nc2c(Cl)cccc21 [Compound 1, N-(6-(((4-Chloro-1-(1-methyl-1H-tetrazol-5-yl)-1H-benzo[d]imidazol-2-yl)oxy)methyl)pyridin-2-yl)cyclopropanecarboxamide]	< 2	> 99	–	–
Cc1cccc2c1nc(OCc1cccc(NC(=O)OC(C)(C)C)n1)n2-c1nnnn1C [Compound 21]	< 2	> 99	–	–
CC(=O)Nc1cccc(COc2nc3c(Cl)cccc3n2-c2nnnn2C)n1 [Compound 28]	≥ 2	50 to 99	–	–
Cn1nnnc1-n1c(OCc2cccc(NC(=O)OC(C)(C)C)n2)nc2c(Cl)cccc21 [Compound 3]	< 2	> 99	–	–
Cn1nnnc1-n1c(OCc2cccc(NC(=O)c3ccccc3)n2)nc2c(Cl)cccc21 [Compound 31]	< 2	> 99	–	–
Cn1nnnc1-n1c(OCc2cccc(NC(=O)OC3CCCC3)n2)nc2c(Br)cccc21 [Compound 40]	< 2	> 99	–	–
Cc1cccc2c1nc(OCc1cccc(NC(=O)COc3ccccc3)n1)n2-c1nnnn1C [Compound 20]	< 2	> 99	–	–
CCCC(=O)Nc1cccc(COc2nc3c(Cl)cccc3n2-c2nnnn2C)n1 [Compound 12]	< 2	> 99	–	–
CCCCOC(=O)Nc1cccc(COc2nc3c(Br)cccc3n2-c2nnnn2C)n1 [Compound 35]	< 2	> 99	–	–
